The record followed here is patent publication US20260144890A1, “ANTIBODY DRUG CONJUGATE COMPRISING NMT INHIBITOR CONJUGATED TO AN ANTIBODY” (MyricX Pharma Limited, priority 2024, published 2026).

Common to all, as to assay type: cell-based
Assay [1] has as its system gastric cancer organoid GA0429B. As to the kind of experiment: Gastric cancer organoid viability (CTG 3D), GA0429B. The arrangement: unit not given beside the values. On the procedure: (§1) Day −1: Patient derived gastric cancer organoids (PDXOs) are sheared to uniform sizes and the required number of organoids are combined 1:1 with 50% Matrigel to produce the right size of the organoids to perform the screen.
(§2) Day 0: Organoid seeding • 1. Collect organoids from each well by adding 20 μl 100× Dispase solution to each well from a 6-well plate, which contains 2 ml of organoid medium. • 2. Put the plates back in the incubator, 37° C. for 30 min. • 3. Collect organoids from all wells and pipet through a pre-wet 100 μm filter into a 50 ml plastic tube. • 4. Once all wells have been filtered over 100 μm filters, filter the flow though over a pre-wet 20 μm filter. • 5. […]
(§3) • 10. Place screening plates back into the incubator before adding compounds and day 0 reading. […] One is for day 0 reading (TO) and the other for reading at the end point.
(§4) Day 0: Compounds treatment and Day 0 baseline CTG (cell titre glo) reading • 11. […] For day 0 reading plate, add 40 μL of CTG 3D per well and read luminescent signal on Envision plate reader.
(§5) Day 6: Endpoint CTG reading. • 1. Read assay plates for luminescent CTG signal at the end of the assays: add 40 μL of CTG 3D per well by Multidrop dispenser, mix the contents for 5 min on the plate shaker, and incubate the plates for 30 min at room temperature in dark. Read luminescent signal on Envision plate reader. […]

Assay [2] relates to gastric cancer organoid GA6877B. As to the kind of experiment: Gastric cancer organoid viability (CTG 3D), GA6877B. Also noted: unit not given beside the values. How it is done:
as §1, §2, §3, §4, §5

In assay [3] the test system is gastric cancer organoid GA6894B. Briefly: Gastric cancer organoid viability (CTG 3D), GA6894B. Also noted: AUC (area under curve): unit not given beside the values. How it is done: as §1, §2, §3, §4, §5
Assay [4] concerns gastric cancer organoid GA2434B. Briefly: Gastric cancer organoid viability (CTG 3D), GA2434B. The arrangement: unit not given beside the values. On the procedure:
as §1, §2, §3, §4, §5

Assay [5] relates to gastric cancer organoid GA3102B. As to the kind of experiment: Gastric cancer organoid viability (CTG 3D), GA3102B. Also noted: unit not given beside the values. On the procedure:
as §1, §2, §3, §4, §5

Assay [6] deals with gastric cancer organoid GA0119B. Briefly: Gastric cancer organoid viability (CTG 3D), GA0119B. Also noted: AUC (area under curve): unit not given beside the values. How it is done: as §1, §2, §3, §4, §5
For assay [7], the system named is gastric cancer organoid GA0091B. As to the kind of experiment: Gastric cancer organoid viability (CTG 3D), GA0091B. Also noted: AUC (area under curve): unit not given beside the values. How it is done: as §1, §2, §3, §4, §5
The subject of assay [8] is gastric cancer organoid GA6815B. Briefly: Gastric cancer organoid viability (CTG 3D), GA6815B. Also noted: AUC (area under curve): unit not given beside the values. On the procedure: as §1, §2, §3, §4, §5
In assay [9] the test system is gastric cancer organoid GA0098B. As to the kind of experiment: Gastric cancer organoid viability (CTG 3D), GA0098B. The arrangement: AUC (area under curve): unit not given beside the values. How it is done:
as §1, §2, §3, §4, §5

Assay [10] deals with gastric cancer organoid GA6833B. Briefly: Gastric cancer organoid viability (CTG 3D), GA6833B. The arrangement: unit not given beside the values. How it is done: as §1, §2, §3, §4, §5
Assay [11] relates to gastric cancer organoid GA0087B. Briefly: Gastric cancer organoid viability (CTG 3D), GA0087B. The arrangement: AUC (area under curve): unit not given beside the values. On the procedure: as §1, §2, §3, §4, §5
Assay [12] has as its system gastric cancer organoid GA2109B. Briefly: Gastric cancer organoid viability (CTG 3D), GA2109B. Also noted: unit not given beside the values. How it is done: as §1, §2, §3, §4, §5
For assay [13], the system named is gastric cancer organoid GA3055B. Briefly: Gastric cancer organoid viability (CTG 3D), GA3055B. The arrangement: unit not given beside the values. How it is done:
as §1, §2, §3, §4, §5

Assay [14] has as its system gastric cancer organoid GA6866B. As to the kind of experiment: Gastric cancer organoid viability (CTG 3D), GA6866B. Also noted: unit not given beside the values. On the procedure:
as §1, §2, §3, §4, §5

Assay [15] concerns gastric cancer organoid GA0060B. As to the kind of experiment: Gastric cancer organoid viability (CTG 3D), GA0060B. Also noted: unit not given beside the values. How it is done:
as §1, §2, §3, §4, §5

The test system of assay [16] is gastric cancer organoid GA6891B. Briefly: Gastric cancer organoid viability (CTG 3D), GA6891B. Also noted: AUC (area under curve): unit not given beside the values. On the procedure:
as §1, §2, §3, §4, §5

One may read the IC50 as the midpoint of a concentration-inhibition curve. For the compound `CN[C@@H]1C[C@H]2O[C@@](C)([C@@H]1OC)n1c3ccccc3c3c4c(c5c6ccccc6n2c5c31)C(=O)NC4` [Staurosporine], the “AUC (area under curve)” value was 170.8729 in assay [1]; 175.472 in [2]; 230.6577 in assay [3]; 226.6809 in [4]; 200.7667 in assay [5]; 212.2837 in assay [6]. Also, the “AUC (area under curve)” value in [7] is recorded as 199.9; in assay [8], 194.3428; in assay [9], 239.6; in assay [10], 158.1701; in assay [11] it was 113.2; in assay [12] it was 233.3136. In addition, the “AUC (area under curve)” value in assay [13] is reported as 144.7132; in assay [14], 201.1356; in assay [15], 85.1; in assay [16] it was 174.0868. The IC50 came to 8.5 nM in assay [3]; 8.9 nM in assay [6]; 22.2 nM in assay [7]; 15.8 nM in [8]; 22.1 nM in [9]; 2.9 nM in assay [11]. In assay [16], the IC50 worked out at 9 nM.
